Assay results reported in patent US4645772A, “Levorotatory enantiomers of derivatives of 5,6,13,13a-tetrahydro-8H-dibenzo [A,G]quinolizine, preparative process, pharmaceutical compositions containing them and application” (Urpha, priority 1982, dated 1987).
Entries after “also recorded” stand apart in the source; their conditions may differ. Read-outs that look alike come from different tables or passages of the source.

What was measured:
α1 adrenergic receptors = test: Binding to α1 adrenergic receptors (3H-prazosin), rat cerebral cortex homogenate; conditions: for affinity for the α1 receptor with respect to the α2 receptor: in words, comparison of α1 and α2 binding; for Ki: read-out: SPECIFIC BINDING, Kl, α 1, 3H-prazosin, average of three assays
Protocol: (§1) The tests were carried out on rat cerebral cortex homogenate, according to the method described by P. Greengross and R. Bremmerclaus, Eur. J. Pharmacol. (1979) 55 323-326.
(§2) The results represent the average of the three assays. The Ki values were calculated according to Cheng and Prussoff (Biochem. Parmacol. 1973 22 3099-3108).

α2 adrenergic receptors = molecular target: T1, α2 adrenergic receptors (Rattus norvegicus, UniProt P22909); test: Binding to α2 adrenergic receptors (3H-yohimbin), rat cerebral cortex homogenate; conditions: for Ki: SPECIFIC BINDING, Kl, α 2, 3H-yohimbin, average of three assays
T1 construct: from tissue; host or cells: rat cerebral cortex homogenate
T1 sequence (P22909 1-465): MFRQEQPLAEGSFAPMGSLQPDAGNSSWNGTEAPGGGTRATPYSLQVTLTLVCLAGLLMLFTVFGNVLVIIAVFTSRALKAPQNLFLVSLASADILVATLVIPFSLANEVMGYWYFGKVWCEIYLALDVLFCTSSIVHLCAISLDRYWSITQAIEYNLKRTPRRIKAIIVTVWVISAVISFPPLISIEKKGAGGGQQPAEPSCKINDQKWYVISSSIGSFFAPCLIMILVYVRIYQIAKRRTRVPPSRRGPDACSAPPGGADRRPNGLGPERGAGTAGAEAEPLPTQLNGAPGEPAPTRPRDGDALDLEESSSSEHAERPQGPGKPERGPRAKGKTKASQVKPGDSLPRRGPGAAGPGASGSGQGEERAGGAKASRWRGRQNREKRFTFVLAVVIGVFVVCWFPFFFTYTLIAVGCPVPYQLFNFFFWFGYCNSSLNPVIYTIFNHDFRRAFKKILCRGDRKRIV
Protocol: as §1, §2

[1] = cat; cited from earlier work
[2] = dog; cited from earlier work
normotensive rat = test: Hypotensive activity in the anesthetized normotensive rat; type: in vivo; conditions: for effect on blood pressure: 15 minutes after i.v. administration
Protocol: The study was carried out in the normotensive rat anesthetized with pentothal (40 mg.kg^-1 i.p.). The blood pressure was measured with a catheter placed in the carotid artery and linked to a pressure cell (Statham p 23 DB) and to a recorder according to the method described by Waeldele and Stoclet (J. Pharmacol. Paris 1973, 66, 357-366). The derivatives were administered in increasing doses every 15 minutes by intravenous injection (i.v.).
Each point is the average of the values obtained in n aminals ±standard error.
In FIG. 1 the abscissae show the quantities administered of the compound to be tested, and the ordinates show the average blood pressure ΔP mm Hg.

[3] = test system: mesenteric territory, electrical stimulation of the sympathetic nerves; test: Inhibition of sympathetic excitation in vivo: vasoconstriction of perfused mesenteric territory by electrical stimulation of sympathetic nerves; conditions: i.v. 0.5 mg.kg^-1; 7 Hz; rat
Protocol: (§3) This study was made for the most hypotensive derivative, STB 6. The vascular reactivity of the mesenteric territory perfused in situ in the rat was measured (according to Jackson and Campbell, Eur. J. Pharmacol., 1980, 66, 217-224). After anesthetizing of the rat with pentothal (40 mg.kg^-1 i.p.) the mesenteric territory was perfused at constant flow from a catheter diverting the blood stream of the abdominal aorta. The vasoconstrictor activity resulting from periarterial electrical excitation of the sympathetic nerves (7 Hz) and […] was measured. The activities of the Berbine derivatives administered intravenously were determined for the two types of pressure response. The results obtained are shown in FIGS. 4a and 4b in which the average blood pressure ΔP mm Hg is plotted on the ordinates and time plotted on the abscissae, the injection of the product to be tested or of the placebo (constituted by the same volume of physiological serum) being at time 0.
(§4) FIG. 4a relates to the vasoconstriction caused by electrical stimulation and FIG. 4b to that caused by noradrenalin.

[4] = molecular target: T2, α-adrenergic receptor / phenylephrine contraction of isolated rat aorta (Rattus norvegicus, UniProt P23944); test: Antagonism of phenylephrine on the isolated rat aorta (α-blocking activity, Schild analysis); conditions: for type of antagonism against phenylephrine / affinity for the adrenergic receptor: isolated rat aorta; for r (correlation coefficient of the straight line): Schild's straight line; for r (correlation coefficient of the straight line) / n (slope of Schild's straight line) / Kb: against phenylephrine; for Kb: Schild's relation, read-out: pA2 (converted); for affinity for the adrenergic receptor: in words
T2 construct: phenylephrine on the isolated rat aorta; from tissue; host or cells: isolated rat aorta
T2 sequence (P23944 1-561): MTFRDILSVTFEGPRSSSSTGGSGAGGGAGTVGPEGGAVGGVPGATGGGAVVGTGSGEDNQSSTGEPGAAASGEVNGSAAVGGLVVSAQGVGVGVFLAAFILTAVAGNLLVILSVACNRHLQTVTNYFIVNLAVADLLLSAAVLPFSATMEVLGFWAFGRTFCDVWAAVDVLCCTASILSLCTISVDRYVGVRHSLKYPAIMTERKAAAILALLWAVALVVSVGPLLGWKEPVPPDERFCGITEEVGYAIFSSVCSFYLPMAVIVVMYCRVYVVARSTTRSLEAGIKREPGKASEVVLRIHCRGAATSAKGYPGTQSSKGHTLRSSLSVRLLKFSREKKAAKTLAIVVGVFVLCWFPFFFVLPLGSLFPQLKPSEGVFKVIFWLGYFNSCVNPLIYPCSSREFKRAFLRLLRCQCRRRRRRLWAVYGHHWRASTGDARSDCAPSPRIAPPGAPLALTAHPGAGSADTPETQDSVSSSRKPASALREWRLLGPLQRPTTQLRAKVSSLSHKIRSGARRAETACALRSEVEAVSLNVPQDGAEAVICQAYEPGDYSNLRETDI
Text: (2) Study of α-blocking activity: study of the antagonism between the derivatives of Berbine and phenylephrine on the isolated rat aorta
The quantitative evaluation of the antagonism between the derivatives to be tested and phenylephrine was made by analysis to effect-concentration relationships in the presence and absence of antagonist and the PA2 values calculated with Schild's relation (Arunlasksha na O. and Schild H. P., Br. J. Pharmacol., 1959, 14, 48-58). […] In FIG. 2 the E effect (% of maximum contraction) in the absence and presence of STB 6 (-) is given in the ordinate, and the abscissa gives the log of the phenylephrine concentration. The different curves relate to the following concentrations:
FIG. 2b is the Schild representation (x being the ratio of phenylephrine concentrations which gives a 50% response in the presence and in the absence of STB 6 (-)). On the ordinate are Log (x-1) and on the abscissa Log [(-) STB 6].
The parameters of Schild's relation were also measured in the presence of STB 52 (-) in the same experimental conditions as for STB 6 (-).

[5] = test system: mesenteric territory, noradrenalin; test: Vasoconstriction of perfused mesenteric territory caused by noradrenalin; type: in vivo; conditions: i.v. 0.5 mg.kg^-1; noradrenalin 200 ng; rat
Protocol: as §3, §4

[6] = Toxicity in the mouse (LD50); conditions: in vivo, male mice
Protocol: The LD50 was determined in the mouse. The derivatives to be tested were administered in aqueous solution containing 7% dimethylformamide, by esophageal forced feeding of 0.4 ml per 20 g of body weight, to male mice weighing 20 to 25 g.

[7] = test system: hypertensive effects of adrenalin; conditions: dog; cited from earlier work
hypertensive patients = conditions: cited from earlier work

c1ccc2c(c1)CC1c3ccccc3CCN1C2 (single isomer, unassigned) [Berbine (+), 5,6,13,13a-tetrahydro-8H-dibenzo[a,g]quinolizine]
affinity for the α1 receptor with respect to the α2 receptor (α1 adrenergic receptors): comparable affinities for the α1 and α2 receptors | Ki (α1 adrenergic receptors; rat cerebral cortex homogenate): 4730 ± 538 nM | Ki (α2 adrenergic receptors): 569 ± 137 nM

c1ccc2c(c1)CC1c3ccccc3CCN1C2 (single isomer, unassigned) [Berbine (-), 5,6,13,13a-tetrahydro-8H-dibenzo[a,g]quinolizine]
affinity for the α1 receptor with respect to the α2 receptor (α1 adrenergic receptors): comparable affinities for the α1 and α2 receptors | Ki (α1 adrenergic receptors; rat cerebral cortex homogenate): 212 ± 26 nM | sympatholytic activity [1]: strong sympatholytic activity | Ki (α2 adrenergic receptors): 140 ± 44 nM | sympatholytic activity [2]: strong sympatholytic activity

Oc1ccc2c(c1)CCN1Cc3ccccc3CC21 (single isomer, unassigned; (+)) [(+) STB 4, 3-hydroxy-5,6,13,13a-tetrahydro-8H-dibenzo-[a,g]-quinolizine]
effect on blood pressure (normotensive rat): do not induce a significant decrease in blood pressure | Ki (α1 adrenergic receptors; rat cerebral cortex homogenate): 1220 ± 175 nM | Ki (α2 adrenergic receptors): 321 ± 72 nM

COc1cc2c(cc1OC)CN1CCc3cc(O)ccc3C1C2 (single isomer, unassigned; (+)) [(+) STB 6, 10,11-dimethoxy-3-hydroxy-5,6,13,13a-tetrahydro-8H-dibenzo-[a,g]-quinolizine]
effect on vasoconstriction / pressure response caused by electrical stimulation of the sympathetic nerves [3]: does not have a significant activity; also recorded: devoid of this activity at the same doses | effect on blood pressure (normotensive rat): do not induce a significant decrease in blood pressure | Ki (α1 adrenergic receptors; rat cerebral cortex homogenate): 2930 ± 363 nM | Ki (α2 adrenergic receptors): 901 ± 299 nM | type of antagonism against phenylephrine [4]: non-competitive antagonism against phenylephrine; also recorded: non-competitive antagonist of phenylephrine

Oc1ccc2c(c1)CCN1Cc3ccccc3CC21 (single isomer, unassigned; (-)) [(-) STB 4, 3-hydroxy-5,6,13,13a-tetrahydro-8H-dibenzo-[a,g]-quinolizine]
effect on blood pressure (normotensive rat): significant drop in blood pressure | dose at which active on blood pressure (normotensive rat; i.v.): 1 mg/kg | Ki (α1 adrenergic receptors; rat cerebral cortex homogenate): 462 ± 10 nM | Ki (α2 adrenergic receptors): 307 ± 118 nM

COc1cc2c(cc1OC)CN1CCc3cc(O)ccc3C1C2 (single isomer, unassigned; (-)) [(-) STB 6, 10,11-dimethoxy-3-hydroxy-5,6,13,13a-tetrahydro-8H-dibenzo-[a,g]-quinolizine]
effect on vasoconstriction / pressure response caused by electrical stimulation of the sympathetic nerves [3]: decreases the vasoconstriction of the mesenteric territory caused by the electrical stimulation of the sympathetic nerves; also recorded: reduces the pressure response to sympathetic excitation | effect on blood pressure (normotensive rat): significant drop in blood pressure | dose at which active on blood pressure (normotensive rat; i.v.): 1 mg/kg | hypotensive activity, rank among the derivatives studied (normotensive rat; i.v.): the most hypotensive of the derivatives studied | affinity for the α1 receptor with respect to the α2 receptor (α1 adrenergic receptors): strong affinity for the α1 receptor, with respect to that for the α2 receptor | Ki (α1 adrenergic receptors; rat cerebral cortex homogenate): 419 ± 132 nM | Ki (α2 adrenergic receptors): 1020 ± 335 nM | r (correlation coefficient of the straight line) [4]: 0.99 | n (slope of Schild's straight line) [4]: 0.93 | Kb [4]: 39.8 nM | type of antagonism against phenylephrine [4]: competitive | affinity for the adrenergic receptor [4]: strong affinity for the adrenergic receptor | effect on pressure response due to noradrenalin injection [5]: without modifying the pressure response due to noradrenalin injection

COc1cc2c(cc1OC)CN1CCc3cc(OC(=O)Cc4ccccc4)ccc3C1C2 (single isomer, unassigned; (-)) [(-) STB 52, 10,11-dimethoxy-3-phenacetyloxy-5,6,13,13a-tetrahydro-8H-dibenzo-[a,g]-quinolizine]
LD50 ([6]; oral (esophageal forced feeding), 7% dimethylformamide in water): > 800 mg/kg | mortality ([6]; oral, 800 mg.kg^-1 (limit of solubility)): 30% | r (correlation coefficient of the straight line) [4]: 0.99 | n (slope of Schild's straight line) [4]: 1.00 | Kb [4]: 100 nM | type of antagonism against phenylephrine [4]: as competitive an antagonist of phenylephrine as (-) STB 6 | affinity for the adrenergic receptor [4]: strong affinity for the adrenergic receptor

COc1cc2nc(N3CCN(C(=O)c4ccco4)CC3)nc(N)c2cc1OC [3H-prazosin, ^3 H-prazosin]
maximum binding, α1 receptors (α1 adrenergic receptors; radioligand, rat cerebral cortex homogenate): 200±21 fmoles.mg protein^-1

c1ccc2c(c1)CC1c3ccccc3CCN1C2 (stereo not shown) [Berbine, 5,6,13,13a-tetrahydro-8H-dibenzo[a,g]quinolizine]
effect on hypertensive effects of adrenalin [7]: reverses the hypertensive effects of adrenalin | hypotensive activity (hypertensive patients): hypotensive activity

COC(=O)[C@@H]1[C@H]2C[C@H]3c4[nH]c5ccccc5c4CCN3C[C@@H]2CC[C@@H]1O [Yohimbin]
Ki (α1 adrenergic receptors; rat cerebral cortex homogenate): 322 ± 26 nM

^3 H-yohimbin [3H-yohimbin, reference compound]
maximum binding, α2 receptors (α2 adrenergic receptors; radioligand): 172.5±49.9 fmoles.mg protein^-1 | Kd (α2 adrenergic receptors; read-out: KD of ligand, α2 receptors): 10.2 nM
